The source of these data is patent US20250302912A1, “COMPOSITION INCLUDING PEPTIDE COMPOUND AND SURFACTANT” (CHUGAI SEIYAKU KABUSHIKI KAISHA, priority 2021, published 2025).

Values after ≈ are worked out from the molar mass of the structure shown. Bridge positions count the residues as written; N and C are the ends. Square brackets hold non-standard residues; d marks the D form. Peptide text beside a SMILES is read from it. * marks the point of attachment. Ala(4-thiazolyl) = N[C@@H](Cc1cscn1)C(=O)O; NMeNle(6-CHF2) = CN[C@@H](CCCCC(F)F)C(=O)O; Phe(3-Cl) = N[C@@H](Cc1cccc(Cl)c1)C(=O)O; NMehPhe = CN[C@@H](CCc1ccccc1)C(=O)O; NMeF = CN[C@@H](Cc1ccccc1)C(=O)O; NMeD = CN[C@@H](CC(=O)O)C(=O)O; NMeS = CN[C@@H](CO)C(=O)O; Pip = O=C(O)[C@@H]1CCCCN1; Nle = CCCC[C@H](N)C(=O)O; Pyrrolidide = C1CCN(*)C1; dNMeA = CN[C@H](C)C(=O)O; Propyl = CCC*

Series [1] in a line: Evaluation of Caco-2 membrane permeability. As to conditions: human, Caco-2, pH 6.5, Permeability coefficient (Caco-2 Papp), FaSSIF/HBSS buffer pH 6.5 apical. (In general: Caco-2 cells form a polarised layer with tight junctions and transporters.)
Method: Caco-2 cells were cultured on 96-well Transwell for 3 weeks. […] Each well was shaken at 5% CO2, 37° C., 80 rpm, and at 180 minutes after the start, a sample on the Basal side was taken and the permeation amount of the compound was measured by liquid chromatography-mass spectrometry (LC/MS/MS). From the permeation amount, the permeability coefficient (Caco-2 Papp (cm/sec)) was calculated.
As comparative examples, the permeation amount was measured by the same procedure as described above except that a FaSSIF/HBSS buffer (pH 6.5) without 5 mM lauroyl-L-carnitine was used. […] From the measured permeation amount, the permeability coefficient was calculated.
Series [2] is described as follows: Evaluation of solubility in 50 mM phosphate buffer (PPB, pH 6.5). The series is classed as physicochemical. The following applies: 50 mM phosphate buffer pH 6.5, 37° C., 1 atm, 22 to 24 hours. As for the experimental part: To an excess amount of lyophilized powder of the compound, 50 mM phosphate buffer (PPB: Phosphate buffer, pH 6.5) is added, and after shaking (37° C., 1 atm, 1800 rpm, for 22 to 24 hours), the mixture is filtered with a filter, and the compound concentration of the filtrate is measured by LC/MS/MS. Solubility (μg/mL) is calculated from the measured compound concentration.
Solubility (g/mL) was calculated from the measured compound concentration.

The subject of another series is claudin protein. The following applies: Drug Metab. Pharmacokinet., 26 (2): 162170 (2011); cited from earlier work.
[3] abbreviates: Without 5 mM lauroyl-L-carnitine.

The term Papp A→B denotes how fast a substance crosses the layer from the apical side. For the compound `CC[C@H](C)[C@@H]1NC(=O)[C@H](CC(C)C)N(C)C(=O)CC(C(=O)N2CCOCC2)N(C)C(=O)[C@H](C2CCCC2)N(C)C(=O)C2(CCCC2)NC(=O)[C@@H]2CCCN2C(=O)[C@H](CCc2ccc(C(F)(F)F)c(Cl)c2)NC(=O)CN(C)C(=O)[C@H](CC2CCCCC2)N(C)C(=O)[C@@H]2CCN2C(=O)[C@H](C)N(C)C1=O` (single isomer, unassigned) [Compound 2], the Papp A→B at 180 min in series [1] (With 5 mM lauroyl-L-carnitine) was determined as 0.265 ×10⁻⁶ cm/s; in series [1] (setting [3]) it was 0.0491 ×10⁻⁶ cm/s.

Regarding `CC[C@H](C)[C@@H]1NC(=O)[C@H](CC(C)C)N(C)C(=O)CC(C(=O)N2CCCCC2)N(C)C(=O)[C@H](C2CCCC2)N(C)C(=O)C2(CCCC2)NC(=O)[C@@H]2CCCN2C(=O)[C@H](CCc2ccc(C(F)(F)F)c(Cl)c2)NC(=O)CN(C)C(=O)[C@H](CC2CCCCC2)N(C)C(=O)[C@@H]2CCN2C(=O)[C@H](C)N(C)C1=O` (single isomer, unassigned) [Compound 8], the Papp A→B at 180 min in series [1] (With 5 mM lauroyl-L-carnitine) turned out to be 0.154 ×10⁻⁶ cm/s; in series [1] (setting [3]) it was 0.042 ×10⁻⁶ cm/s.

Consider `CC[C@H](C)[C@@H]1NC(=O)C(CC(C)C)N(C)C(=O)CC(C(=O)N(C)C)N(C)C(=O)[C@H](C2CCCC2)N(C)C(=O)C(C)NC(=O)C(C)N(C)C(=O)[C@H](CCc2ccc(C(F)(F)F)c(Cl)c2)NC(=O)CN(C)C(=O)[C@H](CC2CCCCC2)N(C)C(=O)[C@@H]2CCN2C(=O)[C@H](C)N(C)C1=O` (single isomer, unassigned) [Compound 9], for which the figures for the apparent permeability from apical to basolateral (Papp A→B) at 180 min in series [1] (With 5 mM lauroyl-L-carnitine) and in series [1] (setting [3]) were 0.0214 ×10⁻⁶ cm/s and 0.00949 ×10⁻⁶ cm/s, respectively.

For the compound `CC[C@H](C)[C@@H]1NC(=O)[C@H](CC(C)C)N(C)C(=O)CC(C(=O)N2CCOCC2)N(C)C(=O)[C@H](C2CCCC2)N(C)C(=O)C2(CCCC2)NC(=O)[C@@H]2CCCN2C(=O)[C@H](CCc2ccc(C(F)(F)F)c(Cl)c2)NC(=O)CN(C)C(=O)[C@H](C2CCCC2)N(C)C(=O)[C@@H]2CCN2C(=O)[C@H](C)NC1=O` (single isomer, unassigned) [Compound 10], the Papp A→B at 180 min in series [1] (setting [3]) was < 0.00976 ×10⁻⁶ cm/s.

As for `CC[C@H](C)[C@@H]1NC(=O)[C@H](Cc2ccccc2)N(C)C(=O)CN(C)C(=O)C[C@@H](C(=O)N2CCCCC2)NC(=O)[C@H](CC(C)C)N(C)C(=O)[C@H](COC(C)(C)C)NC(=O)[C@H](CC(C)C)N(C)C(=O)[C@H](CCc2ccccc2)N(C)C(=O)CN(C)C(=O)[C@H]([C@@H](C)O)NC(=O)[C@H](CC(C)C)N(C)C1=O` (stereo in doubt) [Compound 7], the results for the Papp A→B at 180 min in series [1] (With 5 mM lauroyl-L-carnitine) and in series [1] (setting [3]) were 0.526 ×10⁻⁶ cm/s and < 0.0944 ×10⁻⁶ cm/s, respectively.

For orientation: solubility means the dissolved amount per volume that the medium holds. A high value points to much dissolved substance. As for `CC[C@H](C)[C@@H]1NC(=O)[C@H](Cc2ccccc2)N(C)C(=O)[C@H](Cc2cscn2)NC(=O)[C@@H](C)N(C)C(=O)C[C@@H](C(=O)N2CCCC2)NC(=O)[C@@H]2CCCN2C(=O)[C@H](CCCCC(F)F)N(C)C(=O)CNC(=O)[C@H](Cc2ccccc2)N(C)C(=O)[C@@H]2CCCN2C(=O)[C@H](CCc2ccccc2)N(C)C1=O` [Compound 4] ([dNMeA][Ala(4-thiazolyl)][NMeF]I[NMehPhe]P[NMeF]G[NMeNle(6-CHF2)]PD-Pyrrolidide; lactam N-11), in series [2], the solubility was 103 µg/mL (≈ 71.2 µM). Further, the values for the Papp A→B at 180 min in series [1] (With 5 mM lauroyl-L-carnitine) and in series [1] (setting [3]) were 0.012 ×10⁻⁶ cm/s and < 0.0107 ×10⁻⁶ cm/s, respectively.

Turning to `CCCC[C@@H]1NC(=O)[C@@H]2CCCN2C(=O)[C@H](CCCC)NC(=O)[C@@H](C)N(C)C(=O)C[C@@H](C(=O)N2CCCC2)N(C)C(=O)[C@@H]2CCCN2C(=O)[C@H]([C@@H](C)CC)NC(=O)[C@@H]2CCCCN2C(=O)[C@H](Cc2cccc(Cl)c2)NC(=O)[C@H](COCCC)N(C)C(=O)[C@H](Cc2ccccc2)N(C)C1=O` [Compound 5] ([dNMeA][Nle]P[Nle][NMeF][NMeS](Propyl)[Phe(3-Cl)][Pip]IP[NMeD]-Pyrrolidide; lactam N-11), the solubility in series [2] is < 1.09 µg/mL. Further, the Papp A→B at 180 min in series [1] (With 5 mM lauroyl-L-carnitine) amounted to 0.0264 ×10⁻⁶ cm/s; in series [1] (setting [3]) it was 0.00372 ×10⁻⁶ cm/s.

In the case of `CCCCCCCCCCCC(=O)O[C@H](CC(=O)[O-])C[N+](C)(C)C` [lauroyl-L-carnitine], the “Effect on expression of claudin protein / tight junction” value with claudin protein is “suppresses the expression of claudin protein and thus expands the tight junction”.
